Data published in paper PMC2776349, “Asymmetric Deactivation of HIV-1 gp41 following Fusion Inhibitor Binding” (PLoS Pathogens, 2009).
Ends that are not written are not given here.

Columns and labels:
[1] = system: HIV-1HXB2 (gp41); conditions: 1HXB2 (gp41, 48 h)
[2] = target: fluorescein-labeled 5-Helix (Human immunodeficiency virus type 1 group M subtype B, UniProt P04578, C598G/DEL582-596/DEL601-623/N624G); type: binding, HIV-1HXB2
[3] = system: EnvG547D/I548T and EnvV549E; type: cell-based; conditions: versus wild type Env
[4] = system: HIV-1; conditions: compared with wild type C37; ref KMK and MJR, manuscript in preparation; cited from earlier work
[5] = system: HIV-1HXB2; type: cell-based; conditions: low (HOS-CD4-CCR5) versus high (HOS-CD4-CXCR4) CXCR4, HIV-1HXB2

| Sequence | IC50 [1] [nM] | also measured |
| --- | --- | --- |
| GGHTTWMEWDREDNNYTSLIHSLIEESQNQQEKNEQELLGHHHHHH [Variant I635D] | 3100 ± 350 | – |
| GGHTTWMEWDREINNYTSLIHSLIEESQNDQEKNEQELLGHHHHHH [Variant Q652D] | 53 ± 0.98 | – |
| GGHTTWMEWDREINNYTSLIHSLIEESQNQQEKNEQALLGHHHHHH [Variant E659A] | 1.2 ± 0.13 | – |
| GGHTTWMEWDREINNYTSLAHSLIEESQNQQEKNEQELLGHHHHHH [Variant I642A] | 7 ± 1.5 | – |
| GGHTTWMEWDREINNYTSLIHSAIEESQNQQEKNEQELLGHHHHHH [Variant L645A] | 3.9 ± 0.7 | – |
| GGHTTWMEWDREINNYTSLIHSLIEESQNQQEKDEQELLGHHHHHH [Variant N656D] | 100 ± 8.9 | – |
| GGHTTWMEWDREINNYISLIHSLIEESQNQQEKNEQELLGHHHHHH [T639I (NYI)] | 1.7 ± 0.1 | – |
| GGHTTDMEWDREINNYTSLAHSLIEESQNQQEKNEQELLGHHHHHH [W628D/I642A] | 65 ± 9.8 | – |
| GGHTTWMEWDREINNYTSLIHSLIEESQNQQEKAEQELLGHHHHHH [Variant N656A] | 30 ± 4.2 | – |
| GGHTTWMEWDREINKYTSLIHSLIEESQNQQEKNEQELLGHHHHHH [N637K (KYT)] | 1.65 ± 0.05 | – |
| GGHTTWMEWDREINNYTSLDHSLIEESQNQQEKNEQELLGHHHHHH [Variant I642D] | 13000 ± 2100 | – |
| GGHTTWMEWDREINNYTSLIHSLIEEDQNQQEKNEQELLGHHHHHH [Variant S649D] | 2300 ± 170 | – |
| GGHTTWMEWDREINNYTSLIHSDIEESQNQQEKNEQELLGHHHHHH [Variant L645D] | 630 ± 120 | – |
| GGHTTDMEWDREANNYTSLIHSLIEESQNQQEKNEQELLGHHHHHH [W628D/I635A] | 97 ± 8.4 | – |
| GGHTTWMEWDREANNYTSLIHSLIEESQNQQEKNEQELLGHHHHHH [Variant I635A] | 5.7 ± 1.6 | – |
| GGHTTWMEWDREINNYTSLIHSLIEESQNAQEKNEQELLGHHHHHH [Variant Q652A] | 3.5 ± 0.81 | – |
| GGHTTWMEWDREINKYISLIHSLIEESQNQQEKNEQELLGHHHHHH [N637K/T639I (KYI)] | 0.96 ± 0.1 | kon [2]: 2.4±0.1 x10^7 M-1s-1; τoff (time constant for dissociation) ([2]; C37 variants, reciprocal of koff): 11000 min; impact of G547D/I548T and V549E substitutions on potency [3]: minimal impact; resistance development [4]: takes much longer to achieve and requires more escape mutations than resistance to wild type C37; increase in potency on lowering CXCR4 levels [5]: 3.5 fold |
| GGHTTWMEWDREINNYTSLIHSLIEEAQNQQEKNEQELLGHHHHHH [Variant S649A] | 1.6 ± 0.41 | – |
